According to patent US20080214551A1, “Treatment of Burns” (AQ+ PLC, priority 2004, published 2008):

## Oc1cccc2cccnc12 [8-hydroxyquinoline]
  solubility in aqueous solution: generally insoluble or only poorly soluble
